Measured values: publication PMC12764776, “Structural basis of specific lysine transport by Pseudomonas aeruginosa permease LysP” (Nature Communications, 2025)

How the values were obtained:
[1] = biological target: T1, lysine-specific permease (LysP) (Pseudomonas aeruginosa, UniProt Q9HVG3); test: microscale thermophoresis; format: binding; parameters: purified GFP-free LysP in LMNG
[2] = biological target: T1, lysine-specific permease (LysP); test: microscale thermophoresis; inhibition of [3H]L-lysine transport in LysP proteoliposomes; format: binding; parameters: purified GFP-free LysP in LMNG
[3] = biological target: T1, lysine-specific permease (LysP); test: cryo-EM structure ([…] Å) and microscale thermophoresis; [3H]L-lysine transport in proteoliposomes (cold L-lysine IC50 […]); format: binding; parameters: purified GFP-free LysP in LMNG (MST); LysP-Nb5755 complex (cryo-EM); with nanobody Nb5755 (cryo-EM structure only)
[4] = biological target: T2, LysP-GFP fusion (P. aeruginosa LysP with GFP-His8) (P. aeruginosa strain PAO1, UniProt Q9HVG3); test: GFP thermal shift (GFP-TS) assay; membranes with LysP-GFP solubilised in 150 mM NaCl, 20 mM Tris-HCl pH 7.5, 1% DDM with or without 1 uM Nb5755, 1 h at 4 °C; 1% beta-OG added; heated 10 min at 4-100 °C; GFP fluorescence of the supernatant; conditions: one partner purified
T2 construct: lysine-specific permease LysP, P. aeruginosa strain PAO1, UniProt Q9HVG3; the same construct as m1 in pWaldo-GFPd, with the GFP-His8 fusion not cut off; The GFP fluorescence is the read-out of the GFP-TS assay; source: E. coli (DE3) C43, in membranes solubilised with 1% DDM, not purified

`NCCCC[C@@H](N)C(=O)O` [D-lysine] was tested, and the Kd [1] was 151 µM.

With `NCCSC[C@H](N)C(=O)O` [L-4-thialysine, S-(2-aminoethyl)-L-cysteine] the Kd [2] was 31 µM.

For `NCCCC[C@H](N)C(=O)O` [L-lysine], the Kd [3] was 14 µM.

B1: nanobody Nb5755 (VHH)
VHH: QVQLQESGGGLVQGGSLRLSCAASGRTFSIYGMAWVRQASGKEREFVAAMPRGGGTTNYADSVKGRFSISRDNAKNTVDLQMNSLKPEDTAVYYCVADRGFTLRLGIQHDYWGQGTQVTVSS
notes: raised in a llama immunised with LysP and selected by phage display; Library cloned into the phage display vector pMESy4, which bears the C-terminal His6 and EPEA tags; also called Nanobody 5755; CA5755; source: E. coli BL21 (DE3), periplasm, purified (Ni-NTA, SEC)
In the case of B1, the “increase in melting temperature” value [4] is reported as 20 °C.
